# Experimental data published in patent US20120329787A1, “FUNGICIDAL PYRANONES AND OXAZINONES” (E.I. DU PONT DE NEMOURS AND COMPANY, priority 2011, published 2012).
# Marks after values point to notes of the source that are not given here.
# Columns and labels:
# Assay type in all cases: in vivo
# Phytophthora infestans = conditions: 200 ppm test suspension; tomato seedlings
# [1] = tested on: Erysiphe graminis f. sp. tritici; assay: Test I: wheat powdery mildew, spray on wheat seedlings the day before inoculation; conditions: 200 ppm test suspension
# Method in brief: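 Wheat seedlings sprayed to run-off with compound at 200 ppm (40 ppm where marked; 200 ppm ≈ 500 g/ha) in acetone/water with 250 ppm surfactant. Inoculated next day with E. graminis spore dust; visual disease rating after 7 days at 20° C.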
# Botrytis cinerea = assay: Test A: tomato Botrytis, spray on tomato seedlings the day before inoculation; conditions: 200 ppm test suspension
# Method in brief: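 Tomato seedlings sprayed to run-off with compound suspension (200 ppm, ≈500 g/ha; some at 40 ppm) in acetone/water with 250 ppm Trem 014, inoculated next day with Botrytis cinerea spores. Held 48 h saturated at 20 °C, then 3 days at 24 °C; disease rated visually.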
# Septoria nodorum = assay: Test E: Septoria glume blotch, spray on wheat seedlings the day before inoculation; conditions: 200 ppm test suspension
# Method in brief: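 Compounds in acetone/water (50/50) with 250 ppm Trem 014 surfactant, sprayed to run-off on wheat seedlings the day before Septoria nodorum inoculation. Tested at 200 ppm (equivalent to 500 g/ha) unless marked 40 ppm.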
# [2] = tested on: Puccinia recondita f. sp. tritici; assay: Test H: wheat leaf rust, spray on wheat seedlings the day before inoculation; conditions: 200 ppm test suspension, sprayed before inoculation
# Method in brief: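 Wheat seedlings sprayed to run-off with compound suspensions (acetone/water with surfactant; 200 ppm ≈ 500 g/ha, or 40 ppm), inoculated next day with rust spores. Plants kept 24 h in saturated atmosphere at 20 °C, then 6 days in a 20 °C growth chamber before visual disease rating.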
# Rhizoctonia solani = assay: Test D: turf brown patch, spray on creeping bent grass seedlings the day before inoculation; conditions: 200 ppm test suspension
# Text: General protocol for preparing test suspensions for Tests A-I: the test compounds were first dissolved in acetone in an amount equal to 3% of the final volume and then suspended at the desired concentration (in ppm) in acetone and purified water (50/50 mix by volume) containing 250 ppm of the surfactant Trem® 014 (polyhydric alcohol esters). The resulting test suspensions were then used in Tests A-I. Spraying a 200 ppm test suspension to the point of run-off on the test plants was the equivalent of a rate of 500 g/ha. […] (An asterisk “*” next to the rating value indicates a 40 ppm test suspension was used.) The test suspension was sprayed to the point of run-off on creeping bent grass (Agrostis sp.) seedlings. The following day, the seedlings were inoculated with a bran and mycelial slurry of Rhizoctonia solani (the causal agent of turf brown patch) and incubated in a saturated atmosphere at 27° C. for 48 h, and then moved to a growth chamber at 27° C. for 3 days, after which time disease ratings were made. […] A dash (-) indicates no test results. All results are for 200 ppm except where followed by an asterisk “*”, which indicates a 40 ppm.
# Septoria tritici = assay: Test F: wheat leaf blotch, spray on wheat seedlings the day before inoculation; conditions: 200 ppm test suspension
# Method in brief: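 Wheat seedlings sprayed to run-off with 200 ppm (≈500 g/ha) or 40 ppm suspension in acetone/water with 250 ppm Trem 014. Next day inoculated with Septoria tritici spores, held 48 h saturated at 24° C, then 19 days at 20° C before visual disease rating.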
# Alternaria solani = assay: Test B: tomato early blight, spray on tomato seedlings the day before inoculation
# Method in brief: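 Tomato seedlings sprayed to run-off with 200 ppm suspension (40 ppm where asterisked), inoculated next day with Alternaria solani spores. Kept 48 h at 27 °C in saturated atmosphere, then 5 days at 20 °C before visual disease rating.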
Compound,"Test C rating (100 = 100% disease control, 0 = no disease control) (Phytophthora infestans) [%]","Test I rating (100 = 100% disease control, 0 = no disease control) [1] [%]","Test A rating (100 = 100% disease control, 0 = no disease control) (Botrytis cinerea) [%]","Test E rating (100 = 100% disease control, 0 = no disease control) (Septoria nodorum) [%]","Test H rating (100 = 100% disease control, 0 = no disease control) [2] [%]","Test D rating (100 = 100% disease control, 0 = no disease control) (Rhizoctonia solani) [%]","Test F rating (100 = 100% disease control, 0 = no disease control) (Septoria tritici) [%]","Test B rating (100 = 100% disease control, 0 = no disease control) (Alternaria solani; 200 ppm test suspension) [%]","Test B rating (100 = 100% disease control, 0 = no disease control) (Alternaria solani; 40 ppm test suspension (asterisk))"
Cc1noc(=O)c(-c2cccc(F)c2)c1-c1ccccc1 [Compound 1],0,0,0,0,0,0,37,–,–
Cc1noc(=O)c(-c2ccc(Cl)cc2)c1-c1c(F)cccc1F [Compound 2],17,92,47,0,0,0,97,–,–
Cc1noc(=O)c(-c2c(F)cc(F)cc2F)c1-c1ccc(Cl)cc1 [Compound 3],9,99,99,0,98,78,99,100,–
Cc1noc(=O)c(-c2cccc(F)c2)c1-c1c(F)cccc1F [Compound 4],8,0,0,0,0,0,0,–,–
Cc1noc(=O)c(-c2c(F)cc(F)cc2F)c1-c1ccc(Br)cc1 [Compound 10],0,99,98,0,95,90,–,100,–
Cc1noc(=O)c(-c2c(F)cc(F)cc2F)c1-c1ccc(F)cc1 [Compound 11],0,100,100,64,98,26,–,99,–
Cc1noc(=O)c(-c2c(F)cc(F)cc2F)c1-c1ccc(C(F)(F)F)cc1 [Compound 12],0,98,0,0,0,0,–,–,99* %
Cc1noc(=O)c(-c2ccc(F)cc2F)c1-c1ccc(Cl)cc1 [Compound 13],0,99,0,0,91,0,–,9,–
Cc1noc(=O)c(-c2ccc(F)cc2Cl)c1-c1ccc(Br)cc1 [Compound 14],0,0,0,0,0,0,–,5,–
Cc1noc(=O)c(-c2c(F)cccc2F)c1-c1ccc(Br)cc1 [Compound 15],0,98,0,0,91,0,–,96,–
Cc1noc(=O)c(-c2c(F)cc(F)cc2F)c1-c1ccc(Cl)c(F)c1 [Compound 16],0,0,0,0,0,0,97,0,–
COc1cc(OC)cc(-c2c(-c3ccccc3F)noc(=O)c2-c2ccc(F)cc2F)c1 [Compound 21],0,0,0,0,0,0,0,0,–
COc1cc(OC)cc(-c2c(-c3ccccc3F)noc(=O)c2-c2c(F)cccc2F)c1 [Compound 22],0,0,0,0,0,8,0,0,–
